ChEMBL document CHEMBL1150009, “Quinine analogs as non-peptide calcitonin gene-related peptide (CGRP) receptor antagonists” (Bioorg Med Chem Lett, 1997)

Tests used:
[1] = biological target: T1, Calcitonin gene-related peptide type 1 receptor (Homo sapiens, UniProt O60894+Q16602); assay: Displacement of [125I]hCGRP human Calcitonin gene-related peptide type receptor expressed in SK-N-MC neuroblastoma cell membranes
[2] = biological target: T1, Calcitonin gene-related peptide type 1 receptor; assay: Compound was tested in vitro for its binding affinity towards recombinant human Calcitonin gene-related peptide type receptor (membranes of HEK293 cells) using [125I]hCGRP as radioligand; assay type: cell membranes
[3] = biological target: T2, Vasoactive intestinal peptide receptor (Gallus gallus) (UniProt A5A0U0); assay: Compound (up to 30 uM) was tested in vitro for percent effectiveness for ligand binding to Vasoactive intestinal peptide receptor
T2 sequence (whole entry): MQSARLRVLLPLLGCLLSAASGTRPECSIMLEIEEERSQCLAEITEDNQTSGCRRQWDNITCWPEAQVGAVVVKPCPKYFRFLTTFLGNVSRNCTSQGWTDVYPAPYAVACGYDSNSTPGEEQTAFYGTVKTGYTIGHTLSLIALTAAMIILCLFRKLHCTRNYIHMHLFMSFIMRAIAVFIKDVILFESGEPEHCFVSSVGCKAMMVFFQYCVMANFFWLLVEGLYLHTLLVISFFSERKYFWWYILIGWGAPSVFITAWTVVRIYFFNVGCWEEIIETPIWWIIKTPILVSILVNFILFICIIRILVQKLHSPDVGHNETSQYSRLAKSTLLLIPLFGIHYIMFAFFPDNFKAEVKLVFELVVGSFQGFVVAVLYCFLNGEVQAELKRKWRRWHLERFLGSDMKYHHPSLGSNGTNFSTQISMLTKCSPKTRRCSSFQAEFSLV

SK-N-MC = assay: In vitro inhibition of CGRP-mediated cAMP production in SK-N-MC cells; assay type: functional, cell-based; settings: Homo sapiens
[4] = biological target: T3, Endothelin receptor type B (Homo sapiens) (UniProt P24530); assay: Compound (up to 30 uM) was tested in vitro for percent effectiveness for ligand binding to ETB receptors
T3 sequence (whole entry): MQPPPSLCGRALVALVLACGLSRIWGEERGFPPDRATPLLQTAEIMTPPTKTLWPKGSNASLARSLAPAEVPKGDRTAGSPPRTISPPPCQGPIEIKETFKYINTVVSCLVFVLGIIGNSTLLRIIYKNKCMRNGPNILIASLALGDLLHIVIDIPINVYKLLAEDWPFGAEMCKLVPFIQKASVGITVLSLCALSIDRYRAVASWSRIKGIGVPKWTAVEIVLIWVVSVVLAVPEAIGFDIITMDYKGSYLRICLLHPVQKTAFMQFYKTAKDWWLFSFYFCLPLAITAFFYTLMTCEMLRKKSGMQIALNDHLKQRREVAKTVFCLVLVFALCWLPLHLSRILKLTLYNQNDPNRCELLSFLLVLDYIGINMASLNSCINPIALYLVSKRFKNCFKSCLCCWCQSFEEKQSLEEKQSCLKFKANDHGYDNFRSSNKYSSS

[5] = Compound (up to 30 uM) was tested in vitro for percent effectiveness for ligand binding to GLP-1 receptors
[6] = biological target: T4, Type-1 angiotensin II receptor A (Rattus norvegicus) (UniProt P25095); assay: Compound (up to 30 uM) was tested in vitro for percent effectiveness for ligand binding to Angiotensin II receptor
T4 sequence (whole entry): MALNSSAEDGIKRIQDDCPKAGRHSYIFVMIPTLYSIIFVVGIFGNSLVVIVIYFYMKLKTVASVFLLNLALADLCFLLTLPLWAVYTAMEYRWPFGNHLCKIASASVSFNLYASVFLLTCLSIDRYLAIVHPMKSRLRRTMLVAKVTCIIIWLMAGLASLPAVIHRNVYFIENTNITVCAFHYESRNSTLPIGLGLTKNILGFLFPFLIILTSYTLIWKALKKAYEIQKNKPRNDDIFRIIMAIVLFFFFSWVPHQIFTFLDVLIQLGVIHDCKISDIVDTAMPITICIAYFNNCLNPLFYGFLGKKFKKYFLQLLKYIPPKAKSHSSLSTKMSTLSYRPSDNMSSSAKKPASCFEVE

[7] = biological target: T5, Endothelin-1 receptor (Homo sapiens) (UniProt P25101); assay: Compound (up to 30 uM) was tested in vitro for percent effectiveness for ligand binding to ETA receptors
T5 sequence (whole entry): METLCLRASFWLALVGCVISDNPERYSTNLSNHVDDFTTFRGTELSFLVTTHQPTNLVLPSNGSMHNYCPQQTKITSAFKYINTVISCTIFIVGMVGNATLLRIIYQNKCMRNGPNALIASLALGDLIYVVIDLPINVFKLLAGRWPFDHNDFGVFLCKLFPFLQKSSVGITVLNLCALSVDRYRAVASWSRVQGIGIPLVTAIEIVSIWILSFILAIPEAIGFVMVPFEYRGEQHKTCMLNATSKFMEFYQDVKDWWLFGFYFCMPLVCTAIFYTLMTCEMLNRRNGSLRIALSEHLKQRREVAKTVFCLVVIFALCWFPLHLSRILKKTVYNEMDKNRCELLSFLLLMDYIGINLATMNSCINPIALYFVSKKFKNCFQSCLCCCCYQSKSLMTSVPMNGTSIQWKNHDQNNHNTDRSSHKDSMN

[8] = biological target: G-protein coupled receptor 182 (Homo sapiens) (UniProt O15218); assay: Compound (up to 30 uM) was tested in vitro for percent effectiveness for ligand binding to Adrenomedullin receptor
G-protein coupled receptor 182 (Homo sapiens), sequence (O15218 whole entry): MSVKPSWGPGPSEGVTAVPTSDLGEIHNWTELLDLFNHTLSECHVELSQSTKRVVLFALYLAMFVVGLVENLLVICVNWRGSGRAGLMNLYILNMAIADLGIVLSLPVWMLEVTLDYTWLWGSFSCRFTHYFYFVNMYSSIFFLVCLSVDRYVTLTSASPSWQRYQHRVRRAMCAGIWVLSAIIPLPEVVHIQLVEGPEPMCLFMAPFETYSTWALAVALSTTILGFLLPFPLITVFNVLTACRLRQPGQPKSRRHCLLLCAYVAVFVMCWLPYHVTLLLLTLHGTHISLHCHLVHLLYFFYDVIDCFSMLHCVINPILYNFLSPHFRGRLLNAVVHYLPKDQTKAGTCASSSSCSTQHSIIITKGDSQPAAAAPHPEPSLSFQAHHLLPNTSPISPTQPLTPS

[9] = Inhibitory concentration in vitro using porcine lung membrane (to identify non-peptide antagonist of the CGRP receptor); assay type: functional, cell membranes, Sus scrofa

T1 sequence (Q16602 whole entry, one chain of several): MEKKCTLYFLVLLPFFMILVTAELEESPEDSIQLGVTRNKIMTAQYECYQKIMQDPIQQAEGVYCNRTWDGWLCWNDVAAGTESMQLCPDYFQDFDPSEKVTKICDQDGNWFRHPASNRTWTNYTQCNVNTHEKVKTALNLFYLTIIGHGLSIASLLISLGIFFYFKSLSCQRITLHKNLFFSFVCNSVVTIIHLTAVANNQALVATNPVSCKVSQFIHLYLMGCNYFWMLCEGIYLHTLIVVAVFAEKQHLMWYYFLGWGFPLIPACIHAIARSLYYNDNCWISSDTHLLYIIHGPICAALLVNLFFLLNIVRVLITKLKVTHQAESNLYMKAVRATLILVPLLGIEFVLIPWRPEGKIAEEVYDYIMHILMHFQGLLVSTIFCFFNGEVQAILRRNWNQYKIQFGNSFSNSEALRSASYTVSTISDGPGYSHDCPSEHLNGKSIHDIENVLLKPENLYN

**Q.** With `CCC1CN2CCC1CC2[C@H](O)c1cc(-c2cccc([N+](=O)[O-])c2)nc2ccc(OC)cc12` (stereo partly specified) as the compound, how does the IC50 [1] read?
**A.** 41 µM

**Q.** With `CCC1CN2CCC1CC2[C@H](O)c1cc(-c2ccc(OC)cc2)nc2ccc(OC)cc12` (stereo partly specified) as the compound, how does the IC50 [1] read?
**A.** > 100 µM

**Q.** For `CCC1CN2CCC1CC2[C@H](O)c1cc(-c2ccc(Cl)cc2)nc2ccc(OC)cc12` (stereo partly specified), which IC50 [2] is on record?
**A.** 5.5 µM

**Q.** What about the inhibition [3] of the same compound?
**A.** < 20%

**Q.** And the IC50 (SK-N-MC)?
**A.** 26 µM

**Q.** And the inhibition [4]?
**A.** < 20%

**Q.** What about the inhibition [5] of the same compound?
**A.** < 20%

**Q.** What about the inhibition [6] of the same compound?
**A.** < 20%

**Q.** What about the inhibition [7] of the same compound?
**A.** < 20%

**Q.** And the IC50 [1]?
**A.** 5.9 µM

**Q.** What about the inhibition [8] of the same compound?
**A.** < 20%

**Q.** What about the IC50 [9] of the same compound?
**A.** 6 µM

**Q.** Which IC50 (SK-N-MC) does the source give for `CCC1CN2CCC1CC2[C@H](O)c1cc(-c2ccc(F)c(Cl)c2)nc2ccc(OC)cc12` (stereo partly specified) here?
**A.** 14 µM

**Q.** And the IC50 [1]?
**A.** 17 µM

**Q.** What does the source list for `CCC1CN2CCC1CC2[C@H](O)c1cc(-c2ccc(Cl)cc2Cl)nc2ccc(OC)cc12` (stereo partly specified)?
**A.** IC50 (SK-N-MC): 28 µM; IC50 [1]: 37 µM

**Q.** With `CCC1CN2CCC1CC2[C@H](O)c1cc(-c2cccc(C(F)(F)F)c2)nc2ccc(OC)cc12` (stereo partly specified) as the compound, how does the IC50 (SK-N-MC) read?
**A.** 20 µM

**Q.** What about the IC50 [1] of the same compound?
**A.** 9.9 µM

**Q.** With `CCC1CN2CCC1CC2[C@H](O)c1cc(-c2ccccc2)nc2ccc(OC)cc12` (stereo partly specified) as the compound, how does the IC50 (SK-N-MC) read?
**A.** 65 µM

**Q.** And the IC50 [1]?
**A.** 96 µM

**Q.** Which IC50 (SK-N-MC) does the source give for `CCC1CN2CCC1CC2[C@H](O)c1cc(-c2cccc3ccccc23)nc2ccc(OC)cc12` (stereo partly specified) here?
**A.** 23 µM

**Q.** What about the IC50 [1] of the same compound?
**A.** 33 µM

**Q.** What does the source list for `CCC1CN2CCC1CC2[C@H](O)c1cc(-c2ccc(Oc3ccccc3)cc2)nc2ccc(OC)cc12` (stereo partly specified)?
**A.** IC50 (SK-N-MC): 22 µM; IC50 [1]: 12 µM

**Q.** Which IC50 [1] does the source give for `CCC1CN2CCC1CC2[C@H](O)c1cc(-c2ccsc2)nc2ccc(OC)cc12` (stereo partly specified) here?
**A.** > 100 µM

**Q.** For `CCC1CN2CCC1CC2[C@H](O)c1cc(-c2cccc(N)c2)nc2ccc(OC)cc12` (stereo partly specified), which IC50 (SK-N-MC) is on record?
**A.** > 100 µM

**Q.** What about the IC50 [1] of the same compound?
**A.** > 100 µM

**Q.** With `CCC1CN2CCC1CC2[C@H](O)c1cc(-c2ccc3c(c2)OCO3)nc2ccc(OC)cc12` (stereo partly specified) as the compound, how does the IC50 (SK-N-MC) read?
**A.** 60 µM

**Q.** And the IC50 [1]?
**A.** 74 µM

**Q.** With `CCC1CN2CCC1CC2[C@H](O)c1cc(-c2ccc(C(F)(F)F)cc2)nc2ccc(OC)cc12` (stereo partly specified) as the compound, how does the IC50 (SK-N-MC) read?
**A.** 24 µM

**Q.** What about the IC50 [1] of the same compound?
**A.** 5.2 µM
